Data reported in patent publication US11001891B2, “Methods for treating Parkinson's disease” (Berg LLC, priority 2016, dated 2021).

Assays:
Format in all cases: cell-based, human
SH-SY5Y cells [1] = assay: PIG3 protein, cleaved PARP and cell death in SH-SY5Y cells treated with 6-OHDA; conditions: 6-OHDA 0, 50 and 100 μm, 48 hours
Experimental: This experiment was similar to the experiment described in Example 1, except that the in vitro chemical model of Parkinson's Disease involved treatment of SH-SY5Y cells with oxidopamine, also known as 6-hydroxydopamine (6-OHDA) or 2,4,5-trihydroxyphenethylamine 6-OHDA is known to have a selective adverse effect on dopaminergic and noradrenergic neurons. The structure of 6-OHDA is shown below:
For the experiment, SH-SY5Y cells were treated with 6-OHDA at a concentration of 0, 50 and 100 μm for 48 hours. Following the treatment, the amount of PIG3 protein in the cells and the extent of SH-SY5Y cell death were assessed. Cells treated with etoposide were used as a positive control. Apoptosis in the treated cells was assessed by measuring the amount of cleaved poly(ADP-ribose) polymerase (PARP).

PIG3 protein = assay: Time course of PIG3 protein in SH-SY5Y cells after 6-OHDA (immunoblot); conditions: 50 nm 6-OHDA, normalized to actin
Experimental: The purpose of this experiment was to access the effect of overexpression of PIG3 on cell viability and reactive oxygen species (ROS) production. To this end, SH-SY5Y cells stably overexpressing the PIG3 open reading frame (PIG3 ORF) were created and characterized by determining their viability, ROS burden and the amount of PIG3 protein produced in response to treatment with 50 nM 6-OHDA. Cell viability was measured relative to the empty vector control, pLOC (CTRL). ROS burden was estimated using DCFDA fluorescence measured by flow cytometry; and the amount of PIG3 protein was measured by immunoblotting and normalizing the densitometry of immunoreactivity to the amount of actin as a loading control.

[2] = test system: patient-specific induced pluripotent stem cells (iPSCs); conditions: rotenone 0-1,000 nm or 6-OHDA 0.5-10 μM, 48 hours
Experimental: (§1) For the experiment, patient-specific iPSCs were prepared by reprogramming primary dermal fibroblasts harvested from the upper arm of PD+ and unaffected donors using a non-integrating, self-replicating polycistronic RNA construct containing the reprogramming factors OCT4, SOX2, KLF4 and GLIS1 (Millipore, Simplicon™) according to published protocols. […] Following the treatment, the amount of PIG3 protein in the cells and cell viability were assessed.

PIG3 = PIG3 expression in patient-specific iPSCs after neurotoxin treatment; conditions: rotenone 0-1,000 nm or 6-OHDA 0.5-10 μM, 48 hours
Experimental: as §1

LRRK2-PD neurons = conditions: iPSC-derived LRRK2-PD neurons, increasing concentrations of neurotoxin
Experimental: IPSCs were prepared from LRRK2-PD fibroblasts and then differentiated towards excitatory cortical neurons as described in the above examples and following published protocols (e.g., Shi et al., Nat. Neurosci. 2012, 15(3):10.1038; Chamber et al. Nat. Biotechnology, 2009, 27:275-280, the entire contents of which are incorporated herein by reference).

SH-SY5Y cells [3] = assay: Cell death in SH-SY5Y cells treated with rotenone or 6-OHDA (in vitro chemical model of Parkinson's Disease); conditions: 48 hours rotenone or 6-OHDA in the presence vs absence of inhibitor
Description: The purpose of this experiment was to test the effect of inhibiting the expression of PIG3 in an in vitro chemical model of Parkinson's Disease. For this experiment, an siRNA capable of inhibiting the expression of PIG3 (PIG3 siRNA) was synthesized and tested in SH-SY5Y cells against a non-targeting […] (NTC).
(§2) The purpose of this experiment was to test the effect of inhibiting the p38 MAPK activity on cell death and the expression of PIG3 in in vitro chemical model of Parkinson's Disease. […] SH-SY5Y cell death and PIG3 mRNA expression were assessed following treatment.
(§3) The purpose of this experiment was to test the effect of inhibiting LRRK2 activity on cell death and the expression of PIG3 in in vitro chemical model of Parkinson's Disease. […] SH-SY5Y cell death and PIG3 mRNA expression were assessed following treatment.

PIG3 mRNA = PIG3 mRNA expression in SH-SY5Y cells treated with rotenone or 6-OHDA in presence of kinase inhibitor; conditions: 48 hours rotenone or 6-OHDA in the presence vs absence of inhibitor
Experimental: as §2, §3

SH-SY5Y cells [4] = assay: PIG3 protein, cleaved PARP and cell death in SH-SY5Y cells treated with rotenone; conditions: rotenone 0, 50, 100 and 500 nm, 48 hours, immunoblot
Experimental: The purpose of this experiment was to evaluate the expression of PIG3 and cell viability in an in vitro chemical model of Parkinson's Disease.
Following the treatment, the amount of PIG3 protein in the cells and the extent of SH-SY5Y cell death were assessed. Cells treated with etoposide, which is known to induce apoptosis, were used as a positive control. Apoptosis in the treated cells was assessed by measuring the amount of cleaved poly(ADP-ribose) polymerase

NCCc1cc(O)c(O)cc1O [6-OHDA, 2,4,5-trihydroxyphenethylamine]
apoptosis (cleaved PARP) / cell death (SH-SY5Y cells [1]): 6-OHDA-induced apoptosis
amount of PIG3 protein (SH-SY5Y cells [1]; immunoblot): increased as a function of increasing concentration of 6-OHDA
relative amounts of PIG3 protein at different times after treatment (PIG3 protein): time-dependent accumulation of PIG3 protein
iPSC viability [2]: decreased viability
PIG3 expression (PIG3): increased PIG3 expression
PIG3 protein (LRRK2-PD neurons): further increases
cleaved PARP expression (LRRK2-PD neurons): further increases

COc1cc(C(=O)N2CCC(N3CCN(C)CC3)CC2)ccc1Nc1ncc2c(n1)N(C)c1ccccc1C(=O)N2C [LRRK2-IN-1]
cell death (SH-SY5Y cells [3]): decreased cell death
PIG3 mRNA expression (PIG3 mRNA): decreased PIG3 mRNA expression

C[S+]([O-])c1ccc(-c2nc(-c3ccncc3)c(-c3ccc(F)cc3)[nH]2)cc1 (centres unmarked) [SB203580]
cell death (SH-SY5Y cells [3]): decreased cell death
PIG3 mRNA expression (PIG3 mRNA): decreased PIG3 mRNA expression

C=C(C)[C@H]1Cc2c(ccc3c2O[C@@H]2COc4cc(OC)c(OC)cc4[C@@H]2C3=O)O1 [rotenone]
amount of PIG3 protein (SH-SY5Y cells [4]): increased as a function of increasing concentration of rotenone
PIG3 expression (PIG3): increased PIG3 expression
PIG3 protein (LRRK2-PD neurons): further increases
